Data taken from US20050112099A1, “Tumor antigen BFA5 for prevention and / or treatment of cancer” (Aventis Pasteur, Ltd., priority 2003, published 2005).
Where no end group is shown, it is not given here.

Experiments:
peptide-loaded T2 cells = assay: 51Cr-release CTL assay using peptide-loaded T2 cells; format: cell-based, human; details: listing of the peptide is the result
HLA-A*0201 human T cells = assay: IFN-γ ELISPOT of human T-cell cultures activated with BFA5 peptides; format: cell-based; details: listing of the peptide is the result
[1] = Rabbit immunization with BFA5 peptides, IgG titer; format: in vivo; details: for IgG titer × 10^5 (after second Immunization): KLH-coupled peptide with Freund's Incomplete Adjuvant, two weeks later; for IgG titer × 10^5 (after first Immunization): peptide emulsion with Freund's Complete Adjuvant
Method: Polyclonal antisera were generated against the following series of 22- to 23-mer peptides of BFA5:
Prebleed samples from rabbits were processed and stored at −20° C. Rabbits were immunized as follows: 1) the peptides were administered as an emulsion with Freund's Complete Adjuvant (FCA); and, 2) two weeks later, the peptides were coupled with Keyhole-Limpet Hemocyanin (KLH)-coupled and administered as an emulsion with Freund's Incomplete Adjuvant FIA.

AELQMTLKL
BFA5 peptides inducing CTL lysis of pulsed cells (peptide-loaded T2 cells; Donor AP10): AELQMTLKL | BFA5 peptides inducing CTL lysis of pulsed cells (peptide-loaded T2 cells; Donor AP31): AELQMTLKL | BFA5 peptides eliciting high IFN-γ release (>200 spots/100,000 cells) (HLA-A*0201 human T cells; Donor AP10): AELQMTLKL

ALRIQDIEL
BFA5 peptides eliciting high IFN-γ release (>200 spots/100,000 cells) (HLA-A*0201 human T cells; Donor AP10): ALRIQDIEL

ATCGMKVSI
BFA5 peptides inducing CTL lysis of pulsed cells (peptide-loaded T2 cells; Donor AP10): ATCGMKVSI | BFA5 peptides eliciting high IFN-γ release (>200 spots/100,000 cells) (HLA-A*0201 human T cells; Donor AP10): ATCGMKVSI

AVYSEILSV
BFA5 peptides eliciting high IFN-γ release (>200 spots/100,000 cells) (HLA-A*0201 human T cells; Donor AP10): AVYSEILSV

GVTAEHYAV
BFA5 peptides eliciting high IFN-γ release (>200 spots/100,000 cells) (HLA-A*0201 human T cells; Donor AP31): GVTAEHYAV

ILKEKNAEL
BFA5 peptides eliciting high IFN-γ release (>200 spots/100,000 cells) (HLA-A*0201 human T cells; Donor AP10): ILKEKNAEL | BFA5 peptides eliciting high IFN-γ release (>200 spots/100,000 cells) (HLA-A*0201 human T cells; Donor AP31): ILKEKNAEL

KCTALMLAV
BFA5 peptides eliciting high IFN-γ release (>200 spots/100,000 cells) (HLA-A*0201 human T cells; Donor AP10): KCTALMLAV

KLH-AENTMLTSKLKEKQDKEILEAEI ({KLH}-AENTMLTSKLKEKQDKEILEAEI) [CLP 2981]
IgG titer × 10^5 (after second Immunization) ([1]; Rb1): 256 × 10^5 | IgG titer × 10^5 (after first Immunization) ([1]; Rb1): 8 × 10^5 | IgG titer × 10^5 (after second Immunization) ([1]; Rb2): 64 × 10^5 | IgG titer × 10^5 (after first Immunization) ([1]; Rb2): 4 × 10^5

KLH-DEILPSESKQKDYEENSWDTESL ({KLH}-DEILPSESKQKDYEENSWDTESL) [CLP 2979]
IgG titer × 10^5 (after second Immunization) ([1]; Rb1): 256 × 10^5 | IgG titer × 10^5 (after first Immunization) ([1]; Rb1): 12 × 10^5 | IgG titer × 10^5 (after second Immunization) ([1]; Rb2): 512 × 10^5 | IgG titer × 10^5 (after first Immunization) ([1]; Rb2): 25 × 10^5

KLH-MTKRKKTINLNIQDAQKRTALHW ({KLH}-MTKRKKTINLNIQDAQKRTALHW) [CLP 2977]
IgG titer × 10^5 (after second Immunization) ([1]; Rb1): 256 × 10^5 | IgG titer × 10^5 (after first Immunization) ([1]; Rb1): 25 × 10^5 | IgG titer × 10^5 (after second Immunization) ([1]; Rb2): 64 × 10^5 | IgG titer × 10^5 (after first Immunization) ([1]; Rb2): 6 × 10^5

KLH-NYNNHLKNRIYQYEKEKAETENS ({KLH}-NYNNHLKNRIYQYEKEKAETENS) [CLP 2982]
IgG titer × 10^5 (after second Immunization) ([1]; Rb1): 64 × 10^5 | IgG titer × 10^5 (after first Immunization) ([1]; Rb1): 2/2 × 10^5 | IgG titer × 10^5 (after second Immunization) ([1]; Rb2): 32 × 10^5 | IgG titer × 10^5 (after first Immunization) ([1]; Rb2): 2/2 × 10^5

KLH-RLTLNQEEEKRRNADILNEKIRE ({KLH}-RLTLNQEEEKRRNADILNEKIRE) [CLP 2980]
IgG titer × 10^5 (after second Immunization) ([1]; Rb1): 1024 × 10^5 | IgG titer × 10^5 (after first Immunization) ([1]; Rb1): 25 × 10^5 | IgG titer × 10^5 (after second Immunization) ([1]; Rb2): 128 × 10^5 | IgG titer × 10^5 (after first Immunization) ([1]; Rb2): 12 × 10^5

KLH-TSEKFTWPAKGRPRKIAWEKKED ({KLH}-TSEKFTWPAKGRPRKIAWEKKED) [CLP 2978]
IgG titer × 10^5 (after second Immunization) ([1]; Rb1): 64 × 10^5 | IgG titer × 10^5 (after first Immunization) ([1]; Rb1): 25/25 × 10^5 | IgG titer × 10^5 (after second Immunization) ([1]; Rb2): 256 × 10^5 | IgG titer × 10^5 (after first Immunization) ([1]; Rb2): 25/25 × 10^5

KSQEPAFHI
BFA5 peptides eliciting high IFN-γ release (>200 spots/100,000 cells) (HLA-A*0201 human T cells; Donor AP31): KSQEPAFHI

KVMEINREV
BFA5 peptides eliciting high IFN-γ release (>200 spots/100,000 cells) (HLA-A*0201 human T cells; Donor AP10): KVMEINREV

KVSIPTKAL
BFA5 peptides inducing CTL lysis of pulsed cells (peptide-loaded T2 cells; Donor AP31): KVSIPTKAL | BFA5 peptides eliciting high IFN-γ release (>200 spots/100,000 cells) (HLA-A*0201 human T cells; Donor AP10): KVSIPTKAL

MLKKEIAML
BFA5 peptides eliciting high IFN-γ release (>200 spots/100,000 cells) (HLA-A*0201 human T cells; Donor AP31): MLKKEIAML

MLKLEIATL
BFA5 peptides inducing CTL lysis of pulsed cells (peptide-loaded T2 cells; Donor AP31): MLKLEIATL | BFA5 peptides eliciting high IFN-γ release (>200 spots/100,000 cells) (HLA-A*0201 human T cells; Donor AP10): MLKLEIATL | BFA5 peptides eliciting high IFN-γ release (>200 spots/100,000 cells) (HLA-A*0201 human T cells; Donor AP31): MLKLEIATL

NLNYAGDAL
BFA5 peptides eliciting high IFN-γ release (>200 spots/100,000 cells) (HLA-A*0201 human T cells; Donor AP10): NLNYAGDAL | BFA5 peptides eliciting high IFN-γ release (>200 spots/100,000 cells) (HLA-A*0201 human T cells; Donor AP31): NLNYAGDAL

NLVDVYGNM
BFA5 peptides inducing CTL lysis of pulsed cells (peptide-loaded T2 cells; Donor AP10): NLVDVYGNM | BFA5 peptides eliciting high IFN-γ release (>200 spots/100,000 cells) (HLA-A*0201 human T cells; Donor AP10): NLVDVYGNM

QIMEYIRKL
BFA5 peptides inducing CTL lysis of pulsed cells (peptide-loaded T2 cells; Donor AP31): QIMEYIRKL | BFA5 peptides eliciting high IFN-γ release (>200 spots/100,000 cells) (HLA-A*0201 human T cells; Donor AP10): QIMEYIRKL | BFA5 peptides eliciting high IFN-γ release (>200 spots/100,000 cells) (HLA-A*0201 human T cells; Donor AP31): QIMEYIRKL

QLQSKNMWL
BFA5 peptides inducing CTL lysis of pulsed cells (peptide-loaded T2 cells; Donor AP31): QLQSKNMWL | BFA5 peptides eliciting high IFN-γ release (>200 spots/100,000 cells) (HLA-A*0201 human T cells; Donor AP10): QLQSKNMWL | BFA5 peptides eliciting high IFN-γ release (>200 spots/100,000 cells) (HLA-A*0201 human T cells; Donor AP31): QLQSKNMWL

SIPTKALEL
BFA5 peptides inducing CTL lysis of pulsed cells (peptide-loaded T2 cells; Donor AP31): SIPTKALEL | BFA5 peptides eliciting high IFN-γ release (>200 spots/100,000 cells) (HLA-A*0201 human T cells; Donor AP10): SIPTKALEL

SLKINLNYA
BFA5 peptides inducing CTL lysis of pulsed cells (peptide-loaded T2 cells; Donor AP31): SLKINLNYA | BFA5 peptides eliciting high IFN-γ release (>200 spots/100,000 cells) (HLA-A*0201 human T cells; Donor AP10): SLKINLNYA | BFA5 peptides eliciting high IFN-γ release (>200 spots/100,000 cells) (HLA-A*0201 human T cells; Donor AP31): SLKINLNYA

SLSKILDTV
BFA5 peptides inducing CTL lysis of pulsed cells (peptide-loaded T2 cells; Donor AP31): SLSKILDTV | BFA5 peptides eliciting high IFN-γ release (>200 spots/100,000 cells) (HLA-A*0201 human T cells; Donor AP10): SLSKILDTV | BFA5 peptides eliciting high IFN-γ release (>200 spots/100,000 cells) (HLA-A*0201 human T cells; Donor AP31): SLSKILDTV

SLTPLLLSI
BFA5 peptides inducing CTL lysis of pulsed cells (peptide-loaded T2 cells; Donor AP31): SLTPLLLSI | BFA5 peptides eliciting high IFN-γ release (>200 spots/100,000 cells) (HLA-A*0201 human T cells; Donor AP10): SLTPLLLSI | BFA5 peptides eliciting high IFN-γ release (>200 spots/100,000 cells) (HLA-A*0201 human T cells; Donor AP31): SLTPLLLSI

SVPNKAFEL
BFA5 peptides eliciting high IFN-γ release (>200 spots/100,000 cells) (HLA-A*0201 human T cells; Donor AP10): SVPNKAFEL

SVPNKALEL
BFA5 peptides eliciting high IFN-γ release (>200 spots/100,000 cells) (HLA-A*0201 human T cells; Donor AP10): SVPNKALEL

TVSQKDVCL
BFA5 peptides eliciting high IFN-γ release (>200 spots/100,000 cells) (HLA-A*0201 human T cells; Donor AP10): TVSQKDVCL

VFAADICGV
BFA5 peptides eliciting high IFN-γ release (>200 spots/100,000 cells) (HLA-A*0201 human T cells; Donor AP31): VFAADICGV

VLKKKLSEA
BFA5 peptides eliciting high IFN-γ release (>200 spots/100,000 cells) (HLA-A*0201 human T cells; Donor AP31): VLKKKLSEA

YLLHENCML
BFA5 peptides inducing CTL lysis of pulsed cells (peptide-loaded T2 cells; Donor AP10): YLLHENCML | BFA5 peptides eliciting high IFN-γ release (>200 spots/100,000 cells) (HLA-A*0201 human T cells; Donor AP10): YLLHENCML | BFA5 peptides eliciting high IFN-γ release (>200 spots/100,000 cells) (HLA-A*0201 human T cells; Donor AP31): YLLHENCML
